According to ChEMBL document CHEMBL1136903, “Spiroimidazolidinone NPC1L1 inhibitors. 1: Discovery by 3D-similarity-based virtual screening” (Bioorg Med Chem Lett, 2009):

Biological target: T1, NPC1-like intracellular cholesterol transporter 1 (Homo sapiens, UniProt Q9UHC9)
T1 sequence (Q9UHC9 whole entry): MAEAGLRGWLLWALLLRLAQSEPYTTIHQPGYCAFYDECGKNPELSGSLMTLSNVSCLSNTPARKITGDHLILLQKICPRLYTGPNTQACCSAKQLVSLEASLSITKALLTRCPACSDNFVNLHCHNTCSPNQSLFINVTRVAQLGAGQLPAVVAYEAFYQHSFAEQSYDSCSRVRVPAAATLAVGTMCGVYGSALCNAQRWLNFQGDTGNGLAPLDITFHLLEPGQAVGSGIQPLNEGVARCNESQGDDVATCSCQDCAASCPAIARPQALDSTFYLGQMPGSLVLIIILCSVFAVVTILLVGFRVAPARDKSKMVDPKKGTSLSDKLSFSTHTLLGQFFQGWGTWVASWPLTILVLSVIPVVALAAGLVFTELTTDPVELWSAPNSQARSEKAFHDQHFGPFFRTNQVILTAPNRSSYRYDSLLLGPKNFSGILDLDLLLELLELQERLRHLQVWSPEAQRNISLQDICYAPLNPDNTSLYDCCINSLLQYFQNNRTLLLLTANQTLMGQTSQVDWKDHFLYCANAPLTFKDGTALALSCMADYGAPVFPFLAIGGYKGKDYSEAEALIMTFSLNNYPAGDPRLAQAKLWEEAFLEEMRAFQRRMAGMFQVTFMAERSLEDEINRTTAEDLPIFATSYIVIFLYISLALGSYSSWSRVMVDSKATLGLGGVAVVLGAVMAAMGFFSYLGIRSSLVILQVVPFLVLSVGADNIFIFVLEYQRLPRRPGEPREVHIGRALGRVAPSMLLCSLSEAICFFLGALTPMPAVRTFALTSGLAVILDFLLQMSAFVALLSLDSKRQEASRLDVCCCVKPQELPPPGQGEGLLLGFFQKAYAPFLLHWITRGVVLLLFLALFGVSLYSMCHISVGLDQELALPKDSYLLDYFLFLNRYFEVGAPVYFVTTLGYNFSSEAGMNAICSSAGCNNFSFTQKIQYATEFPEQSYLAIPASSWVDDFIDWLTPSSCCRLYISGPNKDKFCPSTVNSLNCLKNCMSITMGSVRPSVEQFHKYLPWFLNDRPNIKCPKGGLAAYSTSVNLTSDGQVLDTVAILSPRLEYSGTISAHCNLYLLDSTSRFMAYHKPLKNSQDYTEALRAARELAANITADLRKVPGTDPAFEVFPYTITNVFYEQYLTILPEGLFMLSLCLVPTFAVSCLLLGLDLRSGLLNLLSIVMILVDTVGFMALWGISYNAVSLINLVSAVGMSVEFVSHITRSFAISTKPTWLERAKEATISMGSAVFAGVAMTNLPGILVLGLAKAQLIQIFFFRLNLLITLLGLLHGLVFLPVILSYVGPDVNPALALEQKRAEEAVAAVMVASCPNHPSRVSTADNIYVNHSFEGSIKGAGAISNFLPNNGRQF
Assay: Displacement of [35S](2S,3S,4S,5R,6S)-6-(4-((2S,3R)-3-((S)-3-(4-fluorophenyl)-3-hydroxypropyl)-1-(4-(3-(methylsulfonamido)prop-1-ynyl)phenyl)-4-oxoazetidin-2-yl)phenoxy)-3,4,5-trihydroxytetrahydro-2H-pyran-2-carboxylic acid from human recombinant NPC1L1 expressed in HEK293 cells
Type: cell-based

SMILES	IC50 [µM]
Cc1ccc(CCC2CCC(CNC(=O)c3cn[nH]c3)CN2C(=O)OCc2ccccc2)cc1 (stereo unspecified)	81
CC(C)CNC(=O)CN1CN(c2ccccc2)C2(CCN(C(=O)c3ccc(C(C)(C)C)cc3)CC2)C1=O	4.4
CC(C)(C)c1ccc(C(=O)NS(=O)(=O)N2CC3(CCN(C(=O)OCCc4ccccc4)CC3)c3ccccc32)cc1	79
CC1(C(=O)O)COc2ccc(CCN(CCCCC3CCCCC3)C(=O)Nc3ccc(SC(F)(F)F)cc3)cc2O1 (stereo unspecified)	4.6

The remaining compounds from weak to strong by IC50, led by results:

IC50 [µM]	SMILES
7.4	Cn1c(N(Cc2ccc(OCCCC(=O)O)cc2)[C@H]2CC[C@H](C(C)(C)C)CC2)nc2cc(OC3CCCC3)ccc21
0.39	O=C(c1cccc2ccccc12)N1CC(C(=O)N2CCC3(C=Cc4ccccc43)CC2)CC(c2ccccc2)C1 (stereo unspecified)
